Structures can show the parent of a compound that is named as a salt. Each block holds one compound with its values, some of them ahead of it.
Key:
Format in all cases: binding
[1] = biological target: T1, noradrenaline reuptake sites (Rattus norvegicus, UniProt Q63380); test: Affinity for noradrenaline reuptake sites in the rat, competition with [3H]-nisoxetine; details: rat frontal cortex membranes, 2 nM [3H]-nisoxetine, 4 hours at 4° C.
T1 construct: The membranes are prepared from the frontal cortex of the rat; from tissue; host or cells: rat frontal cortex membranes
T1 sequence (Q63380 1-617): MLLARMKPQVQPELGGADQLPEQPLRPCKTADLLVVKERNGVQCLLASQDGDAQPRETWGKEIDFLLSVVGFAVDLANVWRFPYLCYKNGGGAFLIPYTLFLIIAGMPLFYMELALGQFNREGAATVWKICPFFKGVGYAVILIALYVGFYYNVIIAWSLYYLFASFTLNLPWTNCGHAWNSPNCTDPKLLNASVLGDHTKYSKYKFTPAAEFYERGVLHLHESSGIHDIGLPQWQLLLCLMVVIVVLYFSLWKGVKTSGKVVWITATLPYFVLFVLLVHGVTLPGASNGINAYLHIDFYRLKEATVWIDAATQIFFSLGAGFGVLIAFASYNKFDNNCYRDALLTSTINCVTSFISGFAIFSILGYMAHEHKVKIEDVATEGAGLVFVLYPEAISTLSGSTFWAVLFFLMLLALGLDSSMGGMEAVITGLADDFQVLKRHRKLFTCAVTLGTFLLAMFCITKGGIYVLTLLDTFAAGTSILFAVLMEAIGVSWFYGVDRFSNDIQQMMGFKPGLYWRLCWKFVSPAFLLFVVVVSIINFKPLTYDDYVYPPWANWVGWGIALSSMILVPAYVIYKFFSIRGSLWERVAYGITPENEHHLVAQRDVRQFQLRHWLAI
Procedure: Determination of the Affinity for Noradrenaline Reuptake Sites in the Rat
The affinity was determined by competition experiments using [^3 H]-nisoxetine. The membranes are prepared from the frontal cortex of the rat and are incubated in triplicate with 2 nM [^3 H]-nisoxetine and the compound being tested in a final volume of 0.5 ml, for 4 hours at 4° C. The incubation buffer contains 50 mM TRIS-HCl (pH 7.4), 120 mM NaCl and 5 mM KCl. The non-specific binding is determined using 10 μM desipramine.
(§1) At the end of the incubation, the incubation medium is filtered through WHATMAN GF/B filters impregnated with 0.1% of polyethylenimine and washed three times with 5 ml of cooled buffer. The radioactivity retained on the filters is determined by liquid scintillation counting. The binding isotherms are analysed by non-linear regression.

[2] = biological target: T2, serotonin reuptake sites (Rattus norvegicus, UniProt P31652); test: Affinity for serotonin reuptake sites in the rat, competition with [3H]-paroxetine; details: rat frontal cortex membranes, 0.25 nM [3H]-paroxetine, 2 hours at 25° C.
T2 construct: The membranes are prepared from the frontal cortex of the rat; from tissue; host or cells: rat frontal cortex membranes
T2 sequence (P31652 whole entry): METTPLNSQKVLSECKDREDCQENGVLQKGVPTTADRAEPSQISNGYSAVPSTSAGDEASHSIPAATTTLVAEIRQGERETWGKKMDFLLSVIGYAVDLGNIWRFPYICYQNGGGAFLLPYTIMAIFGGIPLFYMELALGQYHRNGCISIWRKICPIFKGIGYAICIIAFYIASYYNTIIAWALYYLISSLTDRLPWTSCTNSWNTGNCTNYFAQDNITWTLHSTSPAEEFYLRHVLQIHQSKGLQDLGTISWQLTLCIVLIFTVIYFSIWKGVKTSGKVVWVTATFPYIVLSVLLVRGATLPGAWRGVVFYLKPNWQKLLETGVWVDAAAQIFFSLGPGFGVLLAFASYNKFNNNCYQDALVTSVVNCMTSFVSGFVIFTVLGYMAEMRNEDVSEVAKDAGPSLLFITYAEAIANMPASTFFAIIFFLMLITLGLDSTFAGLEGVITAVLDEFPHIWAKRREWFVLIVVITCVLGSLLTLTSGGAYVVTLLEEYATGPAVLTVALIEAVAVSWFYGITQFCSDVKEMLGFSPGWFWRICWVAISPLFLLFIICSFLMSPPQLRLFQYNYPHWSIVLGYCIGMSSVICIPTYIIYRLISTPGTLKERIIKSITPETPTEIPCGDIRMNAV
Procedure: Determination of the Affinity for Serotonin Reuptake Sites in the Rat
The affinity was determined by competition experiments using [^3 H]-paroxetine. The membranes are prepared from the frontal cortex of the rat and are incubated in triplicate with 0.25 nM [^3 H]-paroxetine and the compound being tested in a final volume of 0.4 ml, for 2 hours at 25° C. The incubation buffer contains 50 mM TRIS-HCl (pH 7.4), 120 mM NaCl and 5 mM KCN. The non-specific binding is determined using 10 μM citalopram.
as §1

[3] = biological target: α2-adrenergic receptors; test: Affinity for α2-adrenergic receptors in the rat, competition with [3H]-RX 821,002; details: rat cerebral cortex membranes, 0.4 nM [3H]-RX 821,002, 60 minutes at 22° C.
Procedure: Determination of the Affinity for α2 -adrenergic Receptors in the Rat
The affinity was determined by competition experiments with [^3 H]-RX 821,002. The membranes are prepared from the cerebral cortex of the rat and are incubated in triplicate with 0.4 nM [^3 H]-RX 821,002 and the compound being tested in a final volume of 1.0 ml, for 60 minutes at 22° C. The incubation buffer contains […] TRIS-HCl (pH 7.5), 1 mM EDTA and 100 μM GppNHp. The non-specific binding is determined using 10 μM phentolamine.
as §1

Ki [1]: 15.8 nM
SMILES: C1=N[C@H](CC2=Cc3ccccc3CC2)CN1 [Example 2, (4R)-4-(3,4-dihydro-2-naphthylmethyl)-4,5-dihydro-1H-imidazole fumarate]

SMILES: COc1cccc2c1C=C(CC1CNC=N1)CC2.O=C(O)/C=C/C(=O)O (stereo not drawn) [Example 12, 4-[(8-Methoxy-3,4-dihydro-2-naphthyl)methyl]-4,5-dihydro-1H-imidazole fumarate]
pKi [2]: 7.8

pKi [3]: 8.8
SMILES: C1=NCC(CC2Cc3ccccc3C2)N1 (stereo not drawn) [Example 22, 4-(2,3-Dihydro-1H-inden-2-ylmethyl)-4,5-dihydro-1H-imidazole hemi-fumarate]
